From patent US9884851B2, “Heterocycle-bisamide inhibitors of scavenger receptor BI” (THE BROAD INSTITUTE, INC., priority 2012, dated 2018)
Entries after “also recorded” stand apart in the source; their conditions may differ.

Biological target: T1, SR-BI (Mus musculus, UniProt Q61009)
T1 sequence (Q61009 1-509): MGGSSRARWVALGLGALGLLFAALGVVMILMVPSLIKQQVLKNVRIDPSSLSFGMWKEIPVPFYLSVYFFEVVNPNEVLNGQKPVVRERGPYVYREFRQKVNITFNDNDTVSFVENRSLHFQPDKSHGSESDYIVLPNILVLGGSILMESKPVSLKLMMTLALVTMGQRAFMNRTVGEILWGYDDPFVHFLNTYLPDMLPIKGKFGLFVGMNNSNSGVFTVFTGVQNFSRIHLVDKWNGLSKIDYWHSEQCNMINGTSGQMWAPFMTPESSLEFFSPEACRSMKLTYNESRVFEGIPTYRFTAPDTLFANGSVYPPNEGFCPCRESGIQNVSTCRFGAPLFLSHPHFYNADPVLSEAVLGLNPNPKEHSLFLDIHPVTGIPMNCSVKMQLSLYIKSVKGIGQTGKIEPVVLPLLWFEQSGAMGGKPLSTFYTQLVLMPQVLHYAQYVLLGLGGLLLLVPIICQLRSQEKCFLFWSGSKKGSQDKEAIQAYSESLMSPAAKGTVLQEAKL
Assay: Cholesterol efflux assay
Type: cell-based, murine
Set-up: expressed in transfected cells; host or cells: ldlA[mSR-BI], Chinese hamster ovary (CHO) cells lacking LDL receptor (Krieger Laboratory)
Conditions: for inhibition of efflux of free cholesterol (in words): efflux to HDL
Protocol: SR-BI also mediates bidirectional flux (e.g. efflux) of unesterified or ‘free’ cholesterol (FC) between cells and HDL or other acceptors. This assay is used to determine if the compounds alter the efflux of free cholesterol to HDL.
On Day 0, 50,000 cells per well were plated in 24-well plates. On the following day, the media was removed and [^3H]cholesterol in lipoprotein-deficient media was added. On Day 1, the medium was replaced with Ham's F12 medium supplemented with 10% bovine lipoprotein deficient serum with 1 μCi/ml [1,2-^3H]cholesterol (40-60 Ci/mmol). On Day 3, the cells were washed to remove serum and incubated in Ham's F12 plus 1% fatty acid-free BSA. On Day 4, the cells were washed and pretreated with compounds for 1 hour. Subsequently, the cells were incubated for an additional 2 hours with the same concentrations of small molecules and with unlabeled HDL (final HDL concentration of 100 μg protein/ml). The medium was collected to determine released cholesterol, and the cells were lysed. The amount of [^3H]cholesterol in the medium and cells was determined using liquid scintillation counting. Total cellular [^3H]cholesterol was calculated as the sum of the radioactivity in the efflux medium plus the radioactivity in the cells and was used to calculate the [^3H]cholesterol efflux (percent of total [^3H]cholesterol released into the medium).

## C[C@H](C(=O)NC1CCCC1)N(C(=O)Cn1nnc(-c2ccc3c(c2)OCO3)n1)C1CCCCC1 [ML279, (R)-2-(2-(5-(Benzo[d][1,3]dioxol-5-yl)-2H-tetrazol-2-yl)-N-cyclohexylacetamido)-N-cyclopentylpropanamide]
  reduction of efflux of free cholesterol from cells: about 50%
  inhibition of efflux of free cholesterol (in words): inhibiting both SR-BI-mediated uptake of cholesteryl ester from HDL and efflux of free cholesterol to HDL particles; also recorded: inhibits efflux of free cholesterol
Listed as compound of Formula (II)
  inhibition of efflux of free cholesterol (in words): inhibit efflux of cholesterol
